Test system: normal human epidermal keratinocytes (NHEK)
Assay: Affymetrix gene array analysis, autoantigen gene expression
Format: cell-based
Details: 100 μM
Procedure: The gene array experiment was performed at the Core Facility of Genomics of the Medical College of Georgia, according to the instructions of the manufacturer (Affymetrix, Santa Clara, Calif.). Briefly, NHEK and OSC2 cells treated with 100 μM EGCG for different time period were extracted for total RNA, the RNA was processed for probes and hybridized with a cDNA microarray (HuG133A, Affymetrix) which represents 22,283 human series. DNA chips were read with a Hewlett-Packard GeneArray Scanner at a resolution of […] and were analyzed with the GeneSpring software (Silicon Genetics, Redwood City, Calif.). Details of this analysis will be published elsewhere (Hsu et al., manuscript in preparation).
Gene assays provide a valuable tool for studying the broad response of cells to agents, and we have used this approach to compare the differential effects of GTPP on gene expression in NHEK and human oral squamous carcinoma cells (Hsu, et al, manuscript in preparation). […] See also Hsu, S. et al. (2005) JPET 315:805-811, which is incorporated by reference in its entirety.

RNA polymerase 1 (202692_s-at) expression, normalized (2 h): 0.48 | ADPRT [poly(ADP)-ribose polymerase] expression (2 h, vs time zero): 1.201 fold
Compound: O=C(O[C@@H]1Cc2c(O)cc(O)cc2O[C@@H]1c1cc(O)c(O)c(O)c1)c1cc(O)c(O)c(O)c1 [EGCG, (−)-epigallocatechin-3-gallate]
60 kDa, SS-A/Ro (210438_x_at) expression, normalized (2 h): 0.92 | 60 kDa, SS-A/Ro (212852_s_at) expression, normalized (2 h): 0.98 | Ku autoantigen, 80 kDa (208642_s_at) expression, normalized (2 h): 1.14 | Ku autoantigen, 80 kDa (208643_s_at) expression, normalized (2 h): 1.40 | Nuclear antigen SP100 (202863_at) expression, normalized (2 h): 1.04 | Nuclear antigen SP100 (202864_s_at) expression, normalized (2 h): 1.21 | Nuclear antigen SP10075 kDa (213226_at) expression, normalized (2 h): 1.09 | SS-B/La (201138_s_at) expression, normalized (2 h): 0.88 | SS-B/La (201139_s_at) expression, normalized (2 h): 0.74 | centromere protein C1 (20473_at) expression, normalized (2 h): 0.46 | coilin (203653_s_at) expression, normalized (2 h): 0.54 | coilin (203654_s_at) expression, normalized (2 h): 0.78 | fodrin-α (208611_s_at) expression, normalized (2 h): 0.75 | fodrin-α (215235_s_at) expression, normalized (2 h): 0.97 | golgin-67 (208797_s_at) expression, normalized (2 h): 0.71 | golgin-67 (208798_x_at) expression, normalized (2 h): 0.46 | golgin-67 (210425_x_at) expression, normalized (2 h): 0.47 | golgin-67 (213650_at) expression, normalized (2 h): 0.61 | scleroderma autoantigen 1, 75 kDa (213226_at) expression, normalized (2 h): 1.09 | spectrin-β non-erythrocyctic 1 (212071_s_at) expression, normalized (2 h): 0.92 | thyroid autoantigen 70 kDa (Ku antigen) (200792_at) expression, normalized (2 h): 1.19 | ANAP12 expression (2 h, vs time zero): 0.991 fold | ANXA11 expression (2 h, vs time zero): 1.26 fold | CALR expression (2 h, vs time zero): 0.943 fold | CBARA1 expression (2 h, vs time zero): 0.773 fold | CENPA expression (2 h, vs time zero): 1.095 fold | CENPB expression (2 h, vs time zero): 0.773 fold | CENPC1 expression (2 h, vs time zero): 0.457 fold | CHD4 expression (2 h, vs time zero): 0.811 fold | COL17A1 expression (2 h, vs time zero): 1.102 fold | CTDSP1 expression (2 h, vs time zero): 1.00 fold | CTDSP2 expression (2 h, vs time zero): 1.21 fold | CTDSPL expression (2 h, vs time zero): 1.12 fold | DLAT expression (2 h, vs time zero): 0.924 fold | EPPK1 expression (2 h, vs time zero): 0.856 fold | FBL expression (2 h, vs time zero): 1.12 fold | FLJ31657 expression (2 h, vs time zero): 0.608 fold | FLNB (Filamin B, β) expression (2 h, vs time zero): 1.168 fold | FLNB (Filamin B, γ) expression (2 h, vs time zero): 0.92 fold | G22P1 (Thyroid autoantigen, 70 kDa, Ku antigen) expression (2 h, vs time zero): 1.185 fold | GMEB2 expression (2 h, vs time zero): 0.739 fold | GOLGA1 expression (2 h, vs time zero): 0.182 fold | GOLGA2 expression (2 h, vs time zero): 0.642 fold | GOLGA3 expression (2 h, vs time zero): 0.58 fold | GOLGA4 expression (2 h, vs time zero): 0.748 fold | GOLGA5 expression (2 h, vs time zero): 0.928 fold | GOLGB1 expression (2 h, vs time zero): 0.704 fold | HARS expression (2 h, vs time zero): 1.11 fold | HARSL expression (2 h, vs time zero): 1.05 fold | HSA6591 expression (2 h, vs time zero): 0.835 fold | HUMAUANTIG expression (2 h, vs time zero): 0.779 fold | IMP-2 expression (2 h, vs time zero): 1.366 fold | LAD1 expression (2 h, vs time zero): 0.681 fold | LMO4 expression (repeat 1) (2 h, vs time zero): 0.867 fold | LMO4 expression (repeat 2) (2 h, vs time zero): 1.199 fold | MGC5560 expression (repeat 1) (2 h, vs time zero): 1.161 fold | MGC5560 expression (repeat 2) (2 h, vs time zero): 0.932 fold | NS (Nucleostemin) expression (2 h, vs time zero): 0.95 fold | PDHB expression (2 h, vs time zero): 1.14 fold | PDX1 expression (2 h, vs time zero): 0.765 fold | PMSCL1, 75 kDa expression (2 h, vs time zero): 1.09 fold | PMSCL2 expression (2 h, vs time zero): 0.938 fold | POLR1B expression (2 h, vs time zero): 1.03 fold | POLR1D expression (2 h, vs time zero): 0.96 fold | POLR2A expression (repeat 1) (2 h, vs time zero): 1.29 fold | POLR2A expression (repeat 2) (2 h, vs time zero): 0.45 fold | POLR2B expression (2 h, vs time zero): 1.02 fold | POLR2C expression (2 h, vs time zero): 1.60 fold | POLR2D expression (2 h, vs time zero): 0.95 fold | POLR2E expression (2 h, vs time zero): 0.70 fold | POLR2F expression (2 h, vs time zero): 1.00 fold | POLR2G expression (2 h, vs time zero): 1.02 fold | POLR2H expression (2 h, vs time zero): 0.85 fold | POLR3C expression (2 h, vs time zero): 0.73 fold | POLR3G expression (2 h, vs time zero): 1.00 fold | PSME3 expression (2 h, vs time zero): 1.151 fold | RALY expression (2 h, vs time zero): 0.752 fold | SART1 expression (2 h, vs time zero): 1.188 fold | SLC25A16 expression (2 h, vs time zero): 0.886 fold | SNRP70 expression (2 h, vs time zero): 1.01 fold | SNRPA expression (2 h, vs time zero): 0.93 fold | SNRPB2 expression (2 h, vs time zero): 0.67 fold | SNRPB expression (repeat 1) (2 h, vs time zero): 0.95 fold | SNRPB expression (repeat 2) (2 h, vs time zero): 0.79 fold | SNRPC expression (2 h, vs time zero): 1.08 fold | SNRPD1 expression (repeat 1) (2 h, vs time zero): 1.285 fold | SNRPD1 expression (repeat 2) (2 h, vs time zero): 0.676 fold | SOX13 expression (2 h, vs time zero): 0.771 fold | SP100 expression (repeat 1) (2 h, vs time zero): 1.037 fold | SP100 expression (repeat 2) (2 h, vs time zero): 1.205 fold | SP110 expression (repeat 1) (2 h, vs time zero): 1.702 fold | SP110 expression (repeat 2) (2 h, vs time zero): 1.804 fold | SP110 expression (repeat 3) (2 h, vs time zero): 1.026 fold | SPTAN1 (α-fodrin) expression (repeat 1) (2 h, vs time zero): 0.75 fold | SPTAN1 (α-fodrin) expression (repeat 2) (2 h, vs time zero): 0.97 fold | SPTBN expression (2 h, vs time zero): 0.92 fold | SSA2 (autoantigen SS-A/Ro) expression (repeat 2) (2 h, vs time zero): 0.919 fold | SSA2 expression (repeat 1) (2 h, vs time zero): 0.335 fold | SSA2 expression (repeat 3) (2 h, vs time zero): 0.957 fold | SSA2 expression (repeat 4) (2 h, vs time zero): 0.98 fold | SSB (autoantigen La) expression (repeat 1) (2 h, vs time zero): 0.878 fold | SSB (autoantigen La) expression (repeat 2) (2 h, vs time zero): 0.739 fold | SSNA1 expression (2 h, vs time zero): 1.17 fold | SSSCA1 expression (2 h, vs time zero): 1.694 fold | STRN3 expression (2 h, vs time zero): 0.623 fold | TOP1 expression (repeat 1) (2 h, vs time zero): 1.09 fold | TOP1 expression (repeat 2) (2 h, vs time zero): 0.62 fold | UBTF expression (2 h, vs time zero): 0.484 fold | XRCC5 (Ku autoantigen, 80 kDa) expression (repeat 1) (2 h, vs time zero): 1.403 fold | XRCC5 (Ku autoantigen, 80 kDa) expression (repeat 2) (2 h, vs time zero): 1.141 fold | dJ963E22.1 expression (2 h, vs time zero): 0.864 fold | α-NAC expression (2 h, vs time zero): 0.521 fold | 60 kDa, SS-A/Ro (210438_x_at) expression, normalized (6 h): 0.69
